Measured values as given in paper PMC11487425 (RSC Medicinal Chemistry, 2024).
pIC50: −log10 of the molar value. Read-outs that look alike come from different tables or passages of the source.

Tests used:
DYRK1A = conditions: cited from earlier work
[1] = rat liver microsomes
DYRK1B [2] = biological target: T1, DYRK1B (Homo sapiens, UniProt Q9Y463); assay: DYRK1B radiometric kinase assay with Woodtide substrate peptide; assay type: biochemical; conditions: read-out: % inhibition at 1 μM, DYRK1B
T1 sequence (Q9Y463 whole entry): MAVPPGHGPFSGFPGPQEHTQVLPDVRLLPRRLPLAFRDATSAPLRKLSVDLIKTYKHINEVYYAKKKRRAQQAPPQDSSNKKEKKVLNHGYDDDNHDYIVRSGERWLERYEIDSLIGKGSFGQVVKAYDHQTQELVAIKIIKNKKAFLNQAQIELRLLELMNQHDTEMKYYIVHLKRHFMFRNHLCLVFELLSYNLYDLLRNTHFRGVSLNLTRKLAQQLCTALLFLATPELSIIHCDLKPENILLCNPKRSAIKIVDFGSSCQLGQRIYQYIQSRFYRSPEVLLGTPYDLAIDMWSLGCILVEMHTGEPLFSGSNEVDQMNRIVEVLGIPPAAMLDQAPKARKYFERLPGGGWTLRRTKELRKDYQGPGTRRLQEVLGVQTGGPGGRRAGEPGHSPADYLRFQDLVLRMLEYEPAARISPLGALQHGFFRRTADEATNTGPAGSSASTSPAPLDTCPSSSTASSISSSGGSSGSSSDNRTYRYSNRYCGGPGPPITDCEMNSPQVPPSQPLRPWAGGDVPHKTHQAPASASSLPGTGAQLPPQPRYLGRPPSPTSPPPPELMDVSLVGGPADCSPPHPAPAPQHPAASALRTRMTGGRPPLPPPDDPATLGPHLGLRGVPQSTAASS

DYRK2 = biological target: T2, DYRK2 (Homo sapiens, UniProt Q92630); assay: LanthaScreen kinase binding assay
T2 sequence (Q92630 1-601): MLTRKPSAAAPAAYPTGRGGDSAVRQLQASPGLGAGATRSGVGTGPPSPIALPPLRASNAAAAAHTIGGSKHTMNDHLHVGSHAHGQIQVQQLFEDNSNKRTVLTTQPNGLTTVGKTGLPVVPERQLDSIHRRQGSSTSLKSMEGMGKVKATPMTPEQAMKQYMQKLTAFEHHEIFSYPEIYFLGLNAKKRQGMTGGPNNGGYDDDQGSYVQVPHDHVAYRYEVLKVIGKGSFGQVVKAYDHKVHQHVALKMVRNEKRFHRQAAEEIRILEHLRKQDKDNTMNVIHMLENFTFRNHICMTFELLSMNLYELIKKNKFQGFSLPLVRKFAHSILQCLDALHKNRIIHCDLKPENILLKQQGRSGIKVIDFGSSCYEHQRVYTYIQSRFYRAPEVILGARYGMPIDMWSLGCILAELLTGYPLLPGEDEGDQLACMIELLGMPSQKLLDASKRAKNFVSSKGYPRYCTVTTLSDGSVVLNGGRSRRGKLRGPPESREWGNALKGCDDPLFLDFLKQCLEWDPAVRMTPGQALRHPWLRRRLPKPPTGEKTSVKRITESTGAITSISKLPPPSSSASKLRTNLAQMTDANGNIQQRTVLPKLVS

CLK1 [3] = biological target: T3, CLK1 (Homo sapiens, UniProt P49759); assay: Radiometric kinase assay; assay type: biochemical
T3 sequence (P49759 whole entry): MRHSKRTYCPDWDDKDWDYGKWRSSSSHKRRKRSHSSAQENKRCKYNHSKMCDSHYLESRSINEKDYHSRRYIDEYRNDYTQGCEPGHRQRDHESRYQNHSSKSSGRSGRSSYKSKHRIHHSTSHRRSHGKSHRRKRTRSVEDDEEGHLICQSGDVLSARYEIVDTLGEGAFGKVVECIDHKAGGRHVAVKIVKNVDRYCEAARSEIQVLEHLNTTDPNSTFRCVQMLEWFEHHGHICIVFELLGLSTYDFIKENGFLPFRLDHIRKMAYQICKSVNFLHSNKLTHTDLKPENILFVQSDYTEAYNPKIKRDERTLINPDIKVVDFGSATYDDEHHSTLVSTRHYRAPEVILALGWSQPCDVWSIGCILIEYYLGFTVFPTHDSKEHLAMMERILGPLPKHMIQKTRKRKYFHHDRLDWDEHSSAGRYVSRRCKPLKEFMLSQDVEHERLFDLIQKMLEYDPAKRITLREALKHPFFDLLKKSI

CLK1 [4] = biological target: T3, CLK1; assay: Z'-LYTE kinase activity assay
DYRK1B [5] = biological target: T1, DYRK1B; assay: Z'-LYTE kinase activity assay

Row | microsomal stability in words [1] | inhibition at 1 µM (DYRK1B [2]) [%] | Structure (SMILES) | further results
1 | rapidly metabolized | – | COc1cccc2c1-c1c(sc3ccccc13)C2=O [4a, 10-Methoxy-6H-benzo[b]indeno[1,2-d]thiophen-6-one] | –
2 | rapidly metabolized | 7 | COc1cccc2c1C(=O)c1sc3ccccc3c1-2 [4d, 7-Methoxy-6H-benzo[b]indeno[1,2-d]thiophen-6-one] | –
3 | – | 68 | COc1ccc2sc3c(c2c1)-c1ccccc1C3=O [4e, 2-Methoxy-6H-benzo[b]indeno[1,2-d]thiophen-6-one] | –

The next lines start with the molecule.

Row | Structure (SMILES) | microsomal stability in words [1] | inhibition at 1 µM (DYRK1B [2]) [%] | further results
4 | CC(=O)c1cc2cc(O)ccc2s1 [1-(5-hydroxy-1-benzothiophen-2-yl)ethan-1-one] | – | – | pIC50 (DYRK1A; read-out: IC50 DYRK1A): 6.70
5 | COc1ccc2sc3c(c2c1)-c1c(OC)cccc1C3=O [4f, 2,10-Dimethoxy-6H-benzo[b]indeno[1,2-d]thiophen-6-one] | rapidly metabolized | < 5 | –
6 | O=C1c2ccccc2-c2c1sc1ccc(O)cc21 [4i, 2-Hydroxy-6H-benzo[b]indeno[1,2-d]thiophen-6-one] | – | 89 | –
7 | COc1ccc2c(c1)-c1c(sc3ccc(O)cc13)C2=O [4j, 2-Hydroxy-9-methoxy-6H-benzo[b]indeno[1,2-d]thiophen-6-one] | – | 93 | –
8 | COc1ccc2c(c1)C(=O)c1sc3ccc(O)cc3c1-2 [4k, 2-Hydroxy-8-methoxy-6H-benzo[b]indeno[1,2-d]thiophen-6-one] | – | 78 | pIC50 (DYRK2): 6.73; pIC50 (CLK1 [3]): 7.70; pIC50 (CLK1 [4]): 5.97; pIC50 (DYRK1B [5]): 6.69
9 | O=C(c1ccccc1)c1cc2cc(O)ccc2s1 [5c] | – | – | pIC50 (DYRK1A; read-out: IC50 for DYRK1A, benzothiophenyl-acetophenones 5, Fig. 2): 5.70
